Key:
[1] = UV-VIS and fluorescence spectroscopy; format: physicochemical; settings: UV-VIS spectrum
Experimental: A size of the contrast agent was detected with the Zetasizer nano-ZS. 10 μL of each of MR780 NPs, FITC-MR780 NPs, and FITC-DSPC NPs was taken and added dropwise on a mesh, air-dried, stained with phosphotungstic acid (10 μL, 3.0%), then washed with deionized water, and air-dried. Morphological images of the mannose contrast agents were acquired through high-resolution transmission electron microscopy (HRTEM). Since MR780 NPs need to emit reduced glutathione-responsive fluorescence in a tumor microenvironment, it must be ensured that MR780 NPs can stably restore the fluorescence signal after reacting with reduced glutathione. 10 μL of MR780 NPs was thoroughly mixed with 10 mM reduced glutathione, and a resulting mixture was shaken at room temperature in the dark; and the fluorescence restoration of MR780 NPs in each group was tested at 10 min, 1 h, 2 h, and 4 h. The UV-VIS spectroscopy and fluorescence spectroscopy were conducted respectively on a UV-VIS spectrophotometer and a fluorescence spectrophotometer.

[2] = test system: induced RAW264.7 cells (CD206); settings: pre-blocking 2 h at 10-100 mg/mL, then FITC-MR780 NPs 40 μg/mL 2 h; FCM
Experimental: After 2 h of co-incubation, the DMEM was changed, FITC-MR780 NPs 40 μg/mL was added in each group, and then co-incubation was conducted for 2 h. A fluorescence signal of FITC in cells of each group was determined by FCM.
2 h before the blocking experiment, free mannose was added in advance at different concentrations, then FITC-MR780 NPs were added, and then co-incubation was conducted for 2 h. An intracellular fluorescence intensity of FITC was determined by FCM.

[3] = test system: CD206 on a surface of RAW264.7 cells; test: Induction of macrophage differentiation, CD206 expression by FCM; format: cell-based, mouse; settings: 24 h with inducer (IL-4 20 ng/mL; LPS 100 ng/mL)
Experimental: RAW264.7 cells at a logarithmic growth phase were plated in a 6-well plate at a density of 1×10^5 cells/mL, then a DMEM was added at 2 mL/well, the plate was incubated overnight, and then interleukin-4 (IL-4) was added to the culture at a final concentration of 20 ng/mL. The IL-4 was an M2 macrophage inducer. In a control group, an M1 macrophage inducer lipopolysaccharide (LPS) was added to the culture at a final concentration of 100 ng/mL and then incubated for 24 h.
The expression of CD206 on a surface of RAW264.7 cells before and after induction was determined by FCM. Cells were digested and centrifuged, 0.5 μg of mouse CD16/32 monoclonal antibody (mAb) was added, and a resulting mixture was incubated at room temperature for 10 min. Then 0.5 mL of a 1× fixation buffer was added, a resulting mixture was incubated in the dark for 20 min and then centrifuged at 350 g for 5 min, and a resulting supernatant was discarded. 2 mL of a membrane disruption solution was added, and a resulting suspension was centrifuged at 350 g for 5 min; and the operation was repeated once. […] 200 μL of PBS was added to resuspend the cells, and the expression of CD206 on a cell surface in each of the two groups was detected by FCM.

CCCN1/C(=C/C=C2\CCCC(/C=C/C3=[N+](CCC)c4ccccc4C3(C)C)=C2Cl)C(C)(C)c2ccccc21.[I-] [IR780]
UV-VIS maximum absorbance / maximum absorption peak [1]: 780 nm

Nc1ccc(O[C@H]2O[C@H](CO)[C@@H](O)[C@H](O)[C@@H]2O)cc1 [free mannose, 4-aminophenyl-α-D-mannopyranoside]
phagocytosis of cells for FITC-MR780 NPs after pre-blocking [2]: decreases significantly

B1: IL-4: interleukin-4, M2 macrophage inducer (protein, UniProt P05112 25-153, looked up)
Interleukin-4: HKCDITLQEIIKTLNSLTEQKTLCTELTVTDIFAASKNTTEKETFCRAATVLRQFYSHHEKDTRCLGATAQQFHRHKQLIRFLKRLDRNLWGLAGLNSCPVKEANQSTLENFLERLKTIMREKYSKCSS
expression of CD206 [3]: 81.22±0.64%

From patent US12576163B2, “Fluorescent contrast agent with targeting function, and preparation method and use thereof” (priority 2022, dated 2026)
